Measured values: patent US11731959B2, “Troxacitabine synthesis and crystal form thereof” (BEIJING HEBABIZ BIOTECHNOLOGY CO., LTD., priority 2015, dated 2023)

What was measured:
Assay type in all cases: physicochemical
[1] = Hygroscopicity study by DVS method at 25° C.; settings: for crystal form after water absorption / DVS (XRPD): XRPD before and after DVS; for humidity at which the crystal form begins to absorb water / water absorbed at 90% RH: 25° C.
Procedure: The hygroscopicity of crystal forms A, C and E is evaluated by DVS method at 25° C. Crystal form A begins to absorb water at 70% RH and absorbs 8.4% of water at 90% RH. […] Crystal form E begins to absorb water at 80% RH and absorbs 8.5% of water at 90% RH. […] Therefore, crystal form C is selected for further stability study.

[2] = Stability study of crystal form C (XRPD, TGA, DSC, HPLC)
Procedure: Crystal form C is evaluated for its physical-chemical stability when placed at 80° C. for 24 h (with the top closed) as well as at 40° C./75% RH and 25° C./60% RH for 1 week (with the top open). The chemical and physical stability of the samples are tested by XRPD, TGA, DSC and HPLC.

[3] = Crystal form conversion on storage or heating (XRPD/DSC)
Source text: The innovator of this invention set up 103 pleiomorphic screening tests using 7 methods, and obtained 7 crystal forms therefrom, i.e., crystal forms A, B, C, E, F, J and K. Among those, crystal forms B, F and J are instable at common temperature while crystal form K is a crystal form of troxacitabine acetic acid solvate or acetate, crystal form C is a crystal form of troxacitabine monohydrate, and crystal forms A and E are the crystal forms of troxacitabine itself (anhydrous substance).
Transfer 201.3 mg of the final product obtained in the embodiment 1 to a 5-ml flasket, add 0.8 mL of water to dissolve and volatilize in a fume hood with the top open for 3 days. Transfer into a vacuum drying oven (<−100 KPa) and volatilize with the top open for 1 day. The resulted crystal form is called crystal form C and its superficial characteristics are obtained using x-ray powder diffraction (XRPD), thermogravimetric analysis (TGA) and differential scanning calorimetry (DSC).
Transfer 199.8 mg of the final product obtained in the embodiment 1 to a 5-ml flasket, add 4.0 mL of methanol:acetone=1:9 (v/v), and mix the suspension for 3 days. Centrifugate for 3 min at a rate of 10000 rpm, precipitate and vacuum dry for 1 h. The resulted crystal form is called crystal form E and its superficial characteristics are obtained using x-ray powder diffraction (XRPD) and differential scanning calorimetry (DSC). […] (the first endothermic peak at a starting temperature of 68.3° C. is the dehydration peak of crystal form C), the second endothermic peak disappears from DSC spectrum when heated to 160° C., that is, the second endothermic peak at a starting temperature of 146.0° C. is the crystal form conversion peak of crystal form A from crystal form E.)

[4] = 1 week, 25° C./60% RH, top open
[5] = 1 week, 40° C./75% RH, top open

Row | Structure (SMILES) | hygroscopicity ([1]; DVS, 25° C./80% RH) [%] | crystal form after water absorption / DVS (XRPD) [1] | relative stability among crystal forms ([1]; room temperature and room humidity) | TGA weight loss (heated to 100° C.) ([2]; 0 h, NA) | HPLC purity ([2]; 0 h, NA) [area %] | TGA weight loss (heated to 100° C.) [2, 4] | HPLC purity [2, 4] [area %] | TGA weight loss (heated to 100° C.) [2, 5] | HPLC purity [2, 5] [area %] | physical stability ([2]; 40° C./75% RH and 25° C./60% RH, 1 week) | chemical stability ([2]; 80° C. 24 h, 40° C./75% RH and 25° C./60% RH 1 week, chemical impurity analysis) | TGA weight loss (heated to 100° C.) ([2]; 24 h, 80° C., top closed) | HPLC purity ([2]; 24 h, 80° C., top closed) [area %] | crystal form change on heating ([3]; heated to 100° C., XRPD) | humidity at which the crystal form begins to absorb water ([1]; DVS) [% RH] | water absorbed at 90% RH ([1]; DVS) [%] | crystal form change on heating ([3]; heated to 160° C., XRPD) | crystal form change on storage ([3]; stored for 3 months in air, XRPD) | crystal form change on storage ([3]; 1-month storage)
1 | Nc1ccn(C2CO[C@H](CO)O2)c(=O)n1 (some centres unmarked) [crystal form C] | 0.14 | remain the same in crystal form | most stable crystal form | 8.0 | 100.0 | 8.2 | 100.0 | 7.9 | 100.0 | physically stable | chemically stable | 0.4 | 100.0 | conversion of crystal form C into crystal form A |  |  |  |  | 
2 | Nc1ccn(C2CO[C@H](CO)O2)c(=O)n1 (some centres unmarked) [crystal form E] |  | begins to convert into crystal form C |  |  |  |  |  |  |  |  |  |  |  |  | 80 | 8.5 | conversion of crystal form E into crystal form A | has a tendency to convert into crystal form C | 
3 | Nc1ccn(C2CO[C@H](CO)O2)c(=O)n1 (some centres unmarked) [crystal form A] |  | begins to convert into crystal form C |  |  |  |  |  |  |  |  |  |  |  |  | 70 | 8.4 |  |  | partially convert into crystal form C
